The target in assay [1] is T1, Tlp3 LBD (Campylobacter jejuni subsp. jejuni, UniProt Q0P864). In words: Isothermal titration calorimetry (ITC). To be noted: for ∆H: ITC binding enthalpy; for ∆H / ∆S / Kd: 25 °C; for ∆S: ITC binding entropy; for Kd / Binding to Tlp3 LBD detected by ITC: 10 µM Tlp3 LBD; for Binding to Tlp3 LBD detected by ITC: ligand at 10 mM. The format is binding, C. jejuni strain NCTC 11168. The procedure: Tlp3 LBD was dialysed against a buffer containing 100 mM Tris-HCl pH 8.0 and 150 mM NaCl. […] Calorimetry measurements were conducted on a VP-ITC MicroCal calorimeter (Malvern Instruments, UK) at 25 °C. The Tlp3 LBD sample (10 µM) in a 1.45 mL reaction cell was titrated with 25 successive 10 µL injections of ligand solution at a spacing of 200 s. All measurements were made in triplicate and corrected for heat changes measured when the ligand was titrated into the buffer. The data were integrated and normalised for protein concentration to generate binding isotherms.
On the technique in general: Isothermal titration calorimetry measures the heat released or taken up as one component is titrated into another.

Assay [2] relates to C. jejuni WT strain. In words: Nutrient-depleted hard agar plug chemotaxis assay, WT strain. The format is cell-based, C. jejuni NCTC 11168. To be noted: plugs prepared from 50–200 mM compound, CI > 1 attractant, < 1 repellent.
Assay [3] has as its target T1, Tlp3 LBD. Nature of the assay: Fluorescence-based thermal shift assay. The format is binding, C. jejuni strain NCTC 11168. The conditions noted are these: for Thermal Shift ∆Tm: 20 μM protein, 0.8–1.6 mM Biolog compound, Tm free protein 56.3 °C; for ΔTm at 5000 µM: read-out: Thermal Shift ∆Tm. The text has this:
Tlp3 LBD from C. jejuni strain NCTC 11168 was expressed in E. coli, purified according to the previously published procedure and used for high-throughput screening against the compounds from the Biolog Phenotype Microarray (PM) libraries PM1, PM3B, and PM5 using thermal shift assays. […] Each plate contains 95 compounds and a negative control (water). Thermal-shift-based screening is based on the phenomenon that ligand-binding alters thermal stability of the protein, resulting in an increase or decrease in the protein’s melting temperature (Tm). Screening was performed by following the protocol previously described by McKellar et al., with minor modifications. The compounds in the Biolog PM plates were dissolved in 50 μL of water, yielding a final concentration of 10–20 mM (as indicated by the manufacturer). Each assay was performed in a 25 μL volume and contained 20 μM protein, 0.8–1.6 mM Biolog compound, 10 mM Tris-HCl pH 8.0, 150 mM NaCl, and 10× SYPRO orange reagent (5000× stock, catalogue number S5692; Sigma-Aldrich). The samples were heated from 35 °C to 80 °C at a ramp rate of 0.5 °C min^−1 using a Rotor-Gene Q real-time PCR cycler (Qiagen, Venlo, Netherlands). Protein denaturation was monitored by following changes in the SYPRO Orange fluorescence emission (λex 530 nm/λem 555 nm) that result from the dye binding to the exposed hydrophobic protein regions. All experiments were performed in triplicate. The midpoint of denaturation (the melting temperature Tm) was calculated by fitting the data to the Boltzmann sigmoidal equation for the two-state unfolding model using GraphPad Prism (version 7.02) (GraphPad Software, La Jolla, CA, USA). The thermal shift assay with the three potential ligands identified using in silico screening was performed at a ligand concentration of 5 mM, with other conditions the same.

In assay [4] the test system is Tlp3 LBD. In words: Co-crystallisation with Tlp3 LBD and X-ray electron density analysis. The format is binding, C. jejuni. The conditions noted are these: co-crystallised with 8 mM ligand; 1.4–1.5 Å resolution. The procedure:
The solution was then clarified by centrifugation at 13,000 g, 4 °C for 20 min and protein crystallisation was carried out by the hanging drop vapour diffusion method using crystallisation conditions similar to those described previously. Briefly, crystals were grown in 2 µL hanging drops suspended over 500 µL reservoir solution containing 22% (w/v) polyethylene glycol 3350, 100 mM sodium citrate pH 5.0 and 200 mM ammonium sulphate. The hanging drop was prepared by adding 1 µL of the protein/ligand mix to 1 µL of the reservoir solution. Crystals of all Tlp3 LBD/ligand complexes had similar unit-cell parameters and belonged to space group P2_1 (Table 2), with two molecules in the asymmetric unit.
To perform data collection at cryogenic temperatures, the crystals were briefly soaked in a cryoprotectant solution consisting of 26% (w/v) polyethylene glycol 3350, 100 mM sodium citrate pH 5.0, 200 mM ammonium sulphate, 10% (v/v) glycerol, and 10 mM respective ligand, and then flash-cooled by plunging them into liquid nitrogen. X-ray diffraction data were collected at 100 K on the MX1 and MX2 beamlines of the Australian Synchrotron. The data were processed using iMOSFLM [65] and scaled with AIMLESS [66] from the CCP4 software suite.
The crystal structures were determined using molecular replacement with PHASER [68] and the protein coordinates of the Tlp3 LBD/isoleucine complex (PDB code, 4XMR) as a search model. The models were refined with PHENIX [69] and manually rebuilt where necessary using COOT [70]. Analysis of the stereochemical quality of the final models was performed using MOLPROBITY [71]. The accessible surface area was calculated using AREAIMOL from CCP4. The structure figures were produced using PyMOL 4.1 [72].

Assay [5] relates to Tlp3 LBD Tyr118Ala. More on the design: method as in PMID 26457436. To be noted: Tyr118Ala vs wild-type Tlp3 LBD ref 32; cited from earlier work.
The target of assay [6] is T1, Tlp3 LBD. More on the design: method as in PMID 26457436. The conditions noted are these: L-isoleucine not among ligands titrated here; listed as footnoted to previous study ref 32; cited from earlier work.
Assay [7] deals with C. jejuni Δtlp3 mutant. In words: Nutrient-depleted hard agar plug chemotaxis assay, Δtlp3 mutant. The format is cell-based, C. jejuni NCTC 11168. The conditions noted are these: CI > 1 attractant, < 1 repellent.
Where [8] appears, read: single-site model, NB = no binding detected by ITC.

Each structure is given as a SMILES string. Where “and” joins values, the source holds several entries; their conditions need not be identical. Identical values can stand only once. Like-named read-outs stand apart in the source and are kept apart here.

As usually defined, the Kd is the free concentration of one partner at which half of the binding sites on the other are occupied at equilibrium, for simple one-to-one binding. A lower Kd goes with tighter binding.

T1 sequence (Q0P864 entry or part of it): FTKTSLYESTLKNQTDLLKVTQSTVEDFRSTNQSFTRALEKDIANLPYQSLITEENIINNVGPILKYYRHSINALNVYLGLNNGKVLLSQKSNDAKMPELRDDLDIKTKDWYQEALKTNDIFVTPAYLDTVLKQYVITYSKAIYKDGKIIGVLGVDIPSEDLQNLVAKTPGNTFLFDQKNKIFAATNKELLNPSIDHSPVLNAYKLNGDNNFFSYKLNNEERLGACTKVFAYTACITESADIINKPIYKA

In the case of `N[C@@H](Cc1ccccc1)C(=O)O` [L-phenylalanine], in assay [1], the “∆H” value was -5.9 ± 0.3 kcal/mol and the “∆S” value is −5.44 cal mol^−1 deg^−1. In assay [1] (setting [8]), this compound displayed a Kd of 730 ± 55 µM. The “Chemotactic response (chemotactic index CI)” value in assay [2] was “Tlp3-dependent attractant response”. In addition, the “Thermal Shift ∆Tm” value in assay [3] is −0.3 ± 0.4 °C.
`c1ncc2nc[nH]c2n1` [purine]: the “Binding to Tlp3 LBD detected by ITC” value in assay [1] is listed as “did not bind”.
As for `O=C(O)CC(O)C(=O)O` (stereo not drawn) [malic acid], in assay [4], the “Electron density for ligand bound to Tlp3 LBD in crystal” value (from here on “Electron density for ligand bound”) is “no electron density”.
As to `CC[C@H](C)[C@H](N)C(=O)O` [L-isoleucine], the “Reduction in binding affinity on Tyr118Ala substitution” value in assay [5] is recorded as at least 35 fold. Also, in assay [6], the “∆H” value is -4.4 ± 0.2 kcal/mol and the “∆S” value is 3.6 cal mol^−1 deg^−1.
Regarding `CC(C)[C@H](C)[C@H](N)C(=O)O` [4-methyl-L-isoleucine], in assay [1], the “∆H” value was -5.1 ± 0.2 kcal/mol and the “∆S” value is given as −1.01 cal mol^−1 deg^−1. Further, the Kd in assay [1] (setting [8]) turned out to be 324 ± 20 µM. For the same compound, the ΔTm at 5000 µM in assay [3] came to 2.8 ± 0.3 °C.
Take `CCC[C@@H](N)C(=O)O` [α-amino-N-valeric acid]: in assay [1], the “∆H” value was -6.5 ± 0.2 kcal/mol and the “∆S” value was −4.5 cal mol^−1 deg^−1. In addition, binding in assay [1] (setting [8]) was put at a Kd of 168 ± 9 µM. In addition, the “Thermal Shift ∆Tm” value in assay [3] turned out to be 1.4 ± 0.3 °C.
`CC(C)C[C@H](N)C(=O)O` [L-leucine]: in assay [1], the “∆H” value is -4.6 ± 0.1 kcal/mol and the “∆S” value is 2.9 cal mol^−1 deg^−1. In assay [1] (setting [8]), this compound came in with a Kd of 105 ± 6 µM. The “Thermal Shift ∆Tm” value in assay [3] was found to be 2.4 ± 0.2 °C.
As to `N=C(N)NCCC[C@H](N)C(=O)O` [L-arginine], the “Binding to Tlp3 LBD detected by ITC” value in assay [1] is recorded as “no binding”. Also, the “Electron density for ligand bound” value in assay [4] is listed as “no electron density”.
With `N[C@@H](CO)C(=O)O` [serine, L-serine], the “Chemotactic response (chemotactic index CI)” value in assay [7] was “did not affect”.
Regarding `C[C@H](N)C(=O)N[C@H](C(=O)O)[C@H](C)O` [Ala-Thr], the “Binding to Tlp3 LBD detected by ITC” value in assay [1] is listed as “no binding”. In assay [3], the “Thermal Shift ∆Tm” value came out at 1.1 ± 0.3 °C.
As for `CCC(C)(C)[C@H](N)C(=O)O` [3-methyl-L-isoleucine], in assay [1], the “∆H” value was -5.7 ± 0.2 kcal/mol and the “∆S” value is on record as −4.03 cal mol^−1 deg^−1. Moreover, the Kd in assay [1] (setting [8]) came to 484 ± 30 µM. Further, the “Reduction of binding affinity (two methyl groups at Position 3)” value in assay [1] (compared with single methyl substitution at Position 3 (L-isoleucine)) is reported as “at least 5 fold”. The ΔTm at 5000 µM in assay [3] was found to be 2 ± 0.1 °C.
Regarding `Nc1ccn([C@H]2C[C@H](O)[C@@H](CO)O2)c(=O)n1` [2-deoxycytidine], in assay [1], the “Binding to Tlp3 LBD detected by ITC” value was “no binding”. For the same compound, the “Thermal Shift ∆Tm” value in assay [3] is 1.4 ± 0.8 °C.
On to `COC(=O)C(C)=O` [methyl pyruvate], for which the “Binding to Tlp3 LBD detected by ITC” value in assay [1] is on record as “no binding”. In addition, the “Thermal Shift ∆Tm” value in assay [3] is −1.8 ± 0.0 °C.
On to `N[C@@H](CC(=O)O)C(=O)O` [L-aspartic acid], for which, in assay [1], the “Binding to Tlp3 LBD detected by ITC” value is “no binding”. In assay [4], the “Electron density for ligand bound” value is “no electron density”.
With `CCC[C@@H](C)C(N)C(=O)O` (stereo in doubt) [β-methyl-L-norleucine], in assay [1], the “∆H” value is -6.2 ± 0.2 kcal/mol and the “∆S” value is reported as −4.77 cal mol^−1 deg^−1. The same compound gave a Kd in assay [1] (setting [8]) of 294 ± 14 µM. Moreover, the ΔTm at 5000 µM in assay [3] was found to be 3.7 ± 0.2 °C.
Regarding `CC(C)[C@H](N)C(=O)O` [L-valine], in assay [1], the “∆H” value is -4.4 ± 0.2 kcal/mol and the “∆S” value turned out to be 0.8 cal mol^−1 deg^−1. In assay [1] (setting [8]), this compound registered a Kd of 405 ± 27 µM. Further, in assay [3], the “Thermal Shift ∆Tm” value worked out at 1.3 ± 0.1 °C.
`C[C@H](N)C(=O)O` [L-alanine]: in assay [1], the “∆H” value is -150.2 ± 54.5 kcal/mol and the “∆S” value was −495.50 cal mol^−1 deg^−1. In addition, in assay [1] (50 mM ligand), the Kd was ~5000 µM and 5000 µM. The affinity in assay [1] (setting [8]), expressed as Kd, was 4980 ± 917 µM. The “Chemotactic response (chemotactic index CI)” value in assay [2] is recorded as “Tlp3-dependent attractant response”. Also, the “Thermal Shift ∆Tm” value in assay [3] was −0.6 ± 0.7 °C.
Take `NCCCC[C@H](N)C(=O)O` [L-lysine]: the “Binding to Tlp3 LBD detected by ITC” value in assay [1] was “no binding”. Also, the “Electron density for ligand bound” value in assay [4] is “no electron density”.

These data come from paper PMC7277094 (Biomolecules, 2020).
